PubChem BioAssay (NCI)
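Values below derive from 48-hour exposures of cells grown in 96-well plates, with endpoints linearly interpolated between the two concentrations bracketing the appropriate inhibition level. GI50 = concentration required for 50% inhibition of growth. At the TGI there is no net growth.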

Legend:
Experiment in all cases: NCI tumour cell line growth inhibition, 48 h
HOP-62 NSCLC = tested on: HOP-62 NSCLC
SF-539 CNS = tested on: SF-539 CNS
IGROV1 ovarian = tested on: IGROV1 ovarian
MALME-3M melanoma = tested on: MALME-3M melanoma
OVCAR-4 ovarian = tested on: OVCAR-4 ovarian
MDA-MB-231 breast = tested on: MDA-MB-231 breast
NCI-H522 lung = tested on: NCI-H522 lung
ACHN renal = tested on: ACHN renal
HOP-92 NSCLC = tested on: HOP-92 NSCLC
NCI-H226 lung = tested on: NCI-H226 lung

## O=C(C=P(c1ccccc1)(c1ccccc1)c1ccccc1)c1cccc(-c2cccc([N+](=O)[O-])c2)c1
HOP-62 NSCLC
  TGI: > 100 µM
SF-539 CNS
  TGI: 54.4 µM
IGROV1 ovarian
  TGI: 38.4 µM
MALME-3M melanoma
  TGI: 9.28 µM
OVCAR-4 ovarian
  TGI: 15.5 µM
MDA-MB-231 breast
  TGI: 7.04 µM
NCI-H522 lung
  TGI: 4.4 µM
ACHN renal
  TGI: 15.7 µM
HOP-92 NSCLC
  TGI: 5.77 µM

## Cc1nc2c(n1C)C(=O)c1nc(CBr)[nH]c(=O)c1C2=O
SF-539 CNS
  TGI: > 100 µM
IGROV1 ovarian
  TGI: > 100 µM
NCI-H522 lung
  TGI: > 100 µM
ACHN renal
  TGI: > 100 µM
HOP-92 NSCLC
  TGI: > 100 µM

## Nc1ccc(-c2cssc2=S)cc1
HOP-62 NSCLC
  TGI: > 100 µM
SF-539 CNS
  TGI: > 100 µM
IGROV1 ovarian
  TGI: > 100 µM
NCI-H226 lung
  TGI: > 100 µM
MALME-3M melanoma
  TGI: > 100 µM
OVCAR-4 ovarian
  TGI: > 100 µM
MDA-MB-231 breast
  TGI: > 100 µM
NCI-H522 lung
  TGI: > 100 µM
ACHN renal
  TGI: > 100 µM
HOP-92 NSCLC
  TGI: > 100 µM

## COc1ccc2c(c1)CCN=C2Cc1cc(OC)c(OC)cc1CCCl
HOP-62 NSCLC
  TGI: 49.6 µM
SF-539 CNS
  TGI: 65.7 µM
IGROV1 ovarian
  TGI: > 100 µM
NCI-H226 lung
  TGI: > 100 µM
MALME-3M melanoma
  TGI: 73.8 µM
OVCAR-4 ovarian
  TGI: > 100 µM
MDA-MB-231 breast
  TGI: > 100 µM
NCI-H522 lung
  TGI: 60.1 µM
ACHN renal
  TGI: > 100 µM
HOP-92 NSCLC
  TGI: > 100 µM

## N#Cc1c(NC(=S)Nc2ccc(Cl)cc2)sc2c1CCCC2
IGROV1 ovarian
  TGI: > 100 µM
NCI-H226 lung
  TGI: > 100 µM
MALME-3M melanoma
  TGI: > 100 µM
OVCAR-4 ovarian
  TGI: > 100 µM
MDA-MB-231 breast
  TGI: > 100 µM
NCI-H522 lung
  TGI: > 100 µM
ACHN renal
  TGI: > 100 µM

## OC1(c2ccc(Cl)cc2)c2c(ccc3c2OCO3)C2=NCCN21 (centres undefined)
HOP-62 NSCLC
  TGI: > 100 µM
SF-539 CNS
  TGI: > 100 µM
IGROV1 ovarian
  TGI: 54.9 µM
MALME-3M melanoma
  TGI: 21.2 µM
OVCAR-4 ovarian
  TGI: > 100 µM
MDA-MB-231 breast
  TGI: 91.8 µM
ACHN renal
  TGI: > 100 µM
HOP-92 NSCLC
  TGI: 73.5 µM

## COc1ccc(C2CC(c3cccc(Nc4ccncc4)c3)=NN2c2ccc(Cl)cc2)cc1 (centres undefined)
SF-539 CNS
  GI50: 1.63 µM
  TGI: 3.03 µM
IGROV1 ovarian
  GI50: 1.68 µM
  TGI: 3.28 µM
NCI-H226 lung
  GI50: 2.27 µM
  TGI: 7.73 µM
MALME-3M melanoma
  GI50: 1.59 µM
  TGI: 3.15 µM
OVCAR-4 ovarian
  GI50: 1.58 µM
  TGI: 3.06 µM
MDA-MB-231 breast
  GI50: 1.33 µM
  TGI: 2.65 µM
NCI-H522 lung
  GI50: 1.79 µM
  TGI: 3.71 µM
ACHN renal
  GI50: 1.56 µM
  TGI: 2.9 µM
HOP-92 NSCLC
  GI50: 1.12 µM
  TGI: 2.44 µM

## CC(=O)Oc1c(C)c2c(O)c3c1C1=C(OCOC1=C(C)C3=O)/C(C)=C\C(C)(O)C(O)C(C)C(O)C1C(=O)OC(C(C)C1O)C(C)(O)/C=C/C=C(C)C(=O)N2 (centres undefined)
HOP-62 NSCLC
  TGI: > 100 µM
SF-539 CNS
  TGI: 46.8 µM
IGROV1 ovarian
  TGI: 52.7 µM
NCI-H226 lung
  TGI: 75.7 µM
MALME-3M melanoma
  TGI: > 100 µM
MDA-MB-231 breast
  TGI: > 100 µM
NCI-H522 lung
  TGI: > 100 µM
ACHN renal
  TGI: > 100 µM
HOP-92 NSCLC
  TGI: > 100 µM

## O=C(N/N=C(/COc1ccc(Cl)cc1)N=Cc1cccnc1)c1ccncc1
HOP-62 NSCLC
  TGI: > 100 µM
SF-539 CNS
  TGI: > 100 µM
IGROV1 ovarian
  TGI: > 100 µM
NCI-H226 lung
  TGI: > 100 µM
MALME-3M melanoma
  TGI: > 100 µM
OVCAR-4 ovarian
  TGI: > 100 µM
MDA-MB-231 breast
  TGI: > 100 µM
NCI-H522 lung
  TGI: 66.7 µM
ACHN renal
  TGI: > 100 µM
HOP-92 NSCLC
  TGI: 84.5 µM

## COCO[C@@H]1C[C@H]2C(=O)N(COC)c3ccccc3C(=O)N2C1
HOP-62 NSCLC
  TGI: > 100 µM
SF-539 CNS
  TGI: > 100 µM
IGROV1 ovarian
  TGI: > 100 µM
NCI-H226 lung
  TGI: > 100 µM
MALME-3M melanoma
  TGI: > 100 µM
OVCAR-4 ovarian
  TGI: > 100 µM
MDA-MB-231 breast
  TGI: > 100 µM
NCI-H522 lung
  TGI: > 100 µM
ACHN renal
  TGI: > 100 µM

## CC(=O)c1c(SCCN2CCCC2)n(-c2ccccc2)c(=S)n(-c2ccccc2)c1=O
HOP-62 NSCLC
  TGI: 55 µM
SF-539 CNS
  TGI: 12.5 µM
IGROV1 ovarian
  TGI: 19.4 µM
NCI-H226 lung
  TGI: 54.1 µM
MALME-3M melanoma
  TGI: 12.2 µM
OVCAR-4 ovarian
  TGI: > 90.7 µM
MDA-MB-231 breast
  TGI: 23.4 µM
NCI-H522 lung
  TGI: 8.31 µM
ACHN renal
  TGI: 3.46 µM
HOP-92 NSCLC
  TGI: 18.2 µM

## CS(=O)(=O)OC1CN2CCC1CC2 (centres undefined)
HOP-62 NSCLC
  TGI: > 100 µM
IGROV1 ovarian
  TGI: > 100 µM
MALME-3M melanoma
  TGI: > 100 µM
OVCAR-4 ovarian
  TGI: > 100 µM
MDA-MB-231 breast
  TGI: > 100 µM
NCI-H522 lung
  TGI: > 100 µM
ACHN renal
  TGI: > 100 µM
HOP-92 NSCLC
  TGI: > 100 µM

## C/C(=C\c1ccccc1)C(=O)NCc1ccc(C(=O)NCCC(C)C)cc1
HOP-62 NSCLC
  TGI: 48 µM
SF-539 CNS
  TGI: > 100 µM
IGROV1 ovarian
  TGI: > 100 µM
NCI-H226 lung
  TGI: > 100 µM
MALME-3M melanoma
  TGI: > 100 µM
OVCAR-4 ovarian
  TGI: > 100 µM
MDA-MB-231 breast
  TGI: > 100 µM
NCI-H522 lung
  TGI: > 100 µM
ACHN renal
  TGI: > 100 µM
HOP-92 NSCLC
  TGI: > 100 µM

## CCN(CC)CCCC(C)Nc1ccnc2cc3ccccc3cc12 (centres undefined)
HOP-62 NSCLC
  TGI: > 100 µM
SF-539 CNS
  TGI: > 100 µM
IGROV1 ovarian
  TGI: 50.7 µM
NCI-H226 lung
  TGI: > 100 µM
MALME-3M melanoma
  TGI: 45.1 µM
OVCAR-4 ovarian
  TGI: 7.92 µM
MDA-MB-231 breast
  TGI: > 100 µM
NCI-H522 lung
  TGI: 29 µM
ACHN renal
  TGI: 21 µM
HOP-92 NSCLC
  TGI: > 100 µM

## Cc1cc2c(cc1Cl)SC(c1ccccc1)C(=O)NS2(=O)=O (centres undefined)
HOP-62 NSCLC
  TGI: > 100 µM
SF-539 CNS
  TGI: 73.3 µM
IGROV1 ovarian
  TGI: > 100 µM
NCI-H226 lung
  TGI: > 100 µM
OVCAR-4 ovarian
  TGI: > 100 µM
MDA-MB-231 breast
  TGI: > 100 µM
NCI-H522 lung
  TGI: 59.7 µM
ACHN renal
  TGI: > 100 µM
HOP-92 NSCLC
  TGI: > 100 µM

## COC(=O)c1cc2c3c(cc(N(C)C)c2[nH]1)N(C(=O)c1cc2cc(OC)c(OC)c(OC)c2[nH]1)CC3CCl (centres undefined)
HOP-62 NSCLC
  TGI: 0.00774 µM
NCI-H226 lung
  TGI: 0.0223 µM
MALME-3M melanoma
  TGI: < 0.0025 µM
OVCAR-4 ovarian
  TGI: 0.00605 µM
MDA-MB-231 breast
  TGI: 0.0132 µM
NCI-H522 lung
  TGI: 0.0113 µM
HOP-92 NSCLC
  TGI: 0.756 µM

## CSc1nc(NC2OCC(OC(C)=O)C(OC(C)=O)C2OC(C)=O)c(N=C(C)C(C)=O)c(=O)[nH]1 (centres undefined)
SF-539 CNS
  TGI: > 100 µM
IGROV1 ovarian
  TGI: > 100 µM
MALME-3M melanoma
  TGI: > 100 µM
OVCAR-4 ovarian
  TGI: > 100 µM
ACHN renal
  TGI: > 100 µM
HOP-92 NSCLC
  TGI: > 100 µM

## C#CCn1ncc2c(SC)ncnc21
HOP-62 NSCLC
  TGI: > 100 µM
SF-539 CNS
  TGI: > 100 µM
IGROV1 ovarian
  TGI: > 100 µM
NCI-H226 lung
  TGI: > 100 µM
MALME-3M melanoma
  TGI: > 100 µM
OVCAR-4 ovarian
  TGI: > 100 µM
MDA-MB-231 breast
  TGI: > 100 µM
NCI-H522 lung
  TGI: > 100 µM
ACHN renal
  TGI: > 100 µM
HOP-92 NSCLC
  TGI: > 100 µM

## Cc1cccc2cc3c(ccc4ccccc43)c[n+]12
HOP-62 NSCLC
  TGI: > 100 µM
SF-539 CNS
  TGI: 66.2 µM
IGROV1 ovarian
  TGI: > 100 µM
MALME-3M melanoma
  TGI: 5.22 µM
MDA-MB-231 breast
  TGI: > 100 µM
NCI-H522 lung
  TGI: 38.2 µM
ACHN renal
  TGI: > 100 µM

## CCOC(=O)C[C@@H]1C2(C=C[C@@]13CO3)OCC(C)(C)CO2
HOP-62 NSCLC
  TGI: > 100 µM
SF-539 CNS
  TGI: > 100 µM
IGROV1 ovarian
  TGI: > 100 µM
NCI-H226 lung
  TGI: > 100 µM
MALME-3M melanoma
  TGI: > 100 µM
OVCAR-4 ovarian
  TGI: 97.4 µM
MDA-MB-231 breast
  TGI: > 100 µM
HOP-92 NSCLC
  TGI: > 100 µM

## N#Cc1c2c(c(Nc3cccc(C(F)(F)F)c3)n3c1nc1ccccc13)CCC2
HOP-62 NSCLC
  TGI: > 100 µM
SF-539 CNS
  TGI: > 100 µM
NCI-H226 lung
  TGI: > 100 µM
MALME-3M melanoma
  TGI: > 100 µM
OVCAR-4 ovarian
  TGI: > 100 µM
MDA-MB-231 breast
  TGI: > 100 µM
NCI-H522 lung
  TGI: > 100 µM
ACHN renal
  TGI: > 100 µM
HOP-92 NSCLC
  TGI: > 100 µM
